Target: T1, TRAP1 enzyme (Homo sapiens, UniProt Q12931)
T1 sequence (Q12931 60-704): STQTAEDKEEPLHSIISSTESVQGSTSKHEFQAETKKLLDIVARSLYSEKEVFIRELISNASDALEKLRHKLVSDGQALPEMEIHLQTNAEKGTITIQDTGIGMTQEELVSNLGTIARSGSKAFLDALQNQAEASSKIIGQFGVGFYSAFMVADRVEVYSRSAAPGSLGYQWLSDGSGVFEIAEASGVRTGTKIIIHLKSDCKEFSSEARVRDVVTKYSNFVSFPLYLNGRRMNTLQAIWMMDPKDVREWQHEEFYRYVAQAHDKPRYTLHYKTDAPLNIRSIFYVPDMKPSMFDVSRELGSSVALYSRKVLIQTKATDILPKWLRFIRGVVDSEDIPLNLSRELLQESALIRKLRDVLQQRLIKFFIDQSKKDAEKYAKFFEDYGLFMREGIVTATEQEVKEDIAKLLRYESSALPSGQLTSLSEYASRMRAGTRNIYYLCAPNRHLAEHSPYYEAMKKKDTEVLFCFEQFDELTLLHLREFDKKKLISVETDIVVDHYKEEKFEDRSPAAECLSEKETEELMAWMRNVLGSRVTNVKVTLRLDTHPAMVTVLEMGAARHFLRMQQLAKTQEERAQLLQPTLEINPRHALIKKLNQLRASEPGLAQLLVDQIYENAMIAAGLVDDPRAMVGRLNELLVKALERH
Test: ADP Glo assay (ATPase activity of TRAP1)
Type: biochemical
Conditions: for EC50: 150 nM Trap1, 20 µM ATP, concentration for half maximal activation, read-out: ADP GLO DRC: GeoMean EC50; for Emax: maximal percent activation, read-out: ADP GLO DRC: Mean Emax
Procedure, shortened: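 150 nM TRAP1 preincubated 30 min at 37 °C with compound (0.79–100 µM) in 25 mM Pipes pH 7.5, 40 mM KCl, 0.05 mM MgCl2; reaction started with 20 µM ATP, 60 min at 37 °C. ADP quantified by ADP-Glo luminescence against an ATP/ADP standard curve; Emax and EC50 from sigmoidal fits of activation.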

Compound	EC50	Emax
O=C(Nc1ccc2c(c1)S(=O)(=O)N(c1ccc(C(F)(F)F)cc1)CCO2)c1csc(-c2ccccc2)n1 [Compound 2503]	30 to 100 µM	129 to 149%
O=C(Nc1ccc2c(c1)S(=O)(=O)N(c1ccc(C(F)(F)F)cc1)CCO2)C1CCCN1 (stereo not drawn) [Compound 2410]	30 to 100 µM	150 to 200%
Cc1nscc1C(=O)Nc1ccc2c(c1)S(=O)(=O)N(c1ccc(C(F)(F)F)cc1)CCO2 [Compound 2227]	< 20 µM	129 to 149%
Cc1ncc(C(=O)Nc2ccc3c(c2)S(=O)(=O)N(c2ccc(C(F)(F)F)cc2)CCO3)cn1 [Compound 2200]	30 to 100 µM	150 to 200%
CC(C)n1cc(C(=O)Nc2ccc3c(c2)S(=O)(=O)N(c2ccc(C(F)(F)F)cc2)CCO3)cn1 [Compound 2192]	20 to 30 µM	129 to 149%
O=C(Nc1ccc2c(c1)S(=O)(=O)N(c1ccc(C(F)(F)F)cc1)CCO2)c1cnco1 [Compound 1994, n-(1,1-Dioxido-2-(4-(Trifluoromethyl) Phenyl)-3,4-Dihydro-2H-Benzo[b][1,4,5]Oxathiazepin-8-yl)Oxazole-5-Carboxamide]	30 to 100 µM	> 200%
O=C(Nc1ccc2c(c1)S(=O)(=O)N(c1ccc(C(F)(F)F)cc1)CCO2)c1cccnc1O [Compound 2280]	30 to 100 µM	150 to 200%
COc1cc(N2CCOc3ccc(NC(=O)c4ncoc4C)cc3S2(=O)=O)ccc1C(F)(F)F [Compound 2398]	< 20 µM	129 to 149%
Cc1ncoc1C(=O)Nc1ccc2c(c1)S(=O)(=O)N(c1ccc(C(F)(F)F)cc1)CCC2 [Compound 2458]	< 20 µM	129 to 149%
Cc1ocnc1C(=O)Nc1ccc2c(c1)S(=O)(=O)N(c1ccccc1)CCO2 [Compound 2135, N-(1,1-dioxido-2-phenyl-3,4-dihydro-2H-benzo[b][1,4,5]oxathiazepin-8-yl)-5-methyloxazole-4-carboxamide]	30 to 100 µM	150 to 200%
COc1cccnc1C(=O)Nc1ccc2c(c1)S(=O)(=O)N(c1ccc(C(F)(F)F)cc1)CCO2 [Compound 2288]	< 20 µM	150 to 200%
O=C(Nc1ccc2c(c1)S(=O)(=O)N(c1ccc(C(F)(F)F)cc1)CCO2)c1ccc(CO)cn1 [Compound 2296]	< 20 µM	150 to 200%
Cc1ocnc1C(=O)Nc1ccc2c(c1)S(=O)(=O)N(c1ccc(C(F)(F)F)cc1)CCO2 [Compound 1975, N-(1,1-Dioxido-2-(4-(Trifluoromethyl)Phenyl)-3,4-Dihydro-2H-Benzo[b][1,4,5]Oxathiazepin-8-yl)-5-Methyloxazole-4-Carboxamide]	< 20 µM	129 to 149%
Cc1nc(C)c(C(=O)Nc2ccc3c(c2)S(=O)(=O)N(c2ccc(C(F)(F)F)cc2)CCO3)o1 [Compound 1974, N-(1,1-Dioxido-2-(4-(Trifluoromethyl)Phenyl)-3,4-Dihydro-2H-Benzo[b][1,4,5]Oxathiazepin-8-yl)-2,4-Dimethyloxazole-5-Carboxamide]	20 to 30 µM	150 to 200%
CC(C)c1oncc1C(=O)Nc1ccc2c(c1)S(=O)(=O)N(c1ccc(C(F)(F)F)cc1)CCO2 [Compound 2202]	30 to 100 µM	150 to 200%
Cc1nc(C(=O)Nc2ccc3c(c2)S(=O)(=O)N(c2ccc(C(F)(F)F)cc2)CCO3)co1 [Compound 1992, N-(1,1-Dioxido-2-(4-(trifluoromethyl)Phenyl)-3,4-Dihydro-2H-Benzo[b][1,4,5]Oxathiazepin-8-yl)-2-Methyloxazole-4-Carboxamide]	20 to 30 µM	150 to 200%
O=C(Nc1ccc2c(c1)S(=O)(=O)N(c1ccc(C(F)(F)F)cc1)CCO2)c1cnc[nH]1 [Compound 2075, N-(1,1-Dioxido-2-(4-(Trifluoromethyl) Phenyl)-3,4-Dihydro-2H-Benzo [b] [1,4,5] Oxathiazepin-8-yl)-1H-Imidazole-5-Carboxamide]	20 to 30 µM	150 to 200%
Cc1ncnc(C)c1C(=O)Nc1ccc2c(c1)S(=O)(=O)N(c1ccc(C(F)(F)F)cc1)CCO2 [Compound 2337]	30 to 100 µM	150 to 200%
O=C(Nc1ccc2c(c1)S(=O)(=O)N(c1ccc(C(F)(F)F)cc1)CCO2)c1cnn2c1CCC2 [Compound 2179]	20 to 30 µM	150 to 200%
CC(C)c1scnc1C(=O)Nc1ccc2c(c1)S(=O)(=O)N(c1ccc(C(F)(F)F)cc1)CCO2 [Compound 2085, N-(1,1-Dioxido-2-(4-(Trifluoromethyl)phenyl)-3,4-Dihydro-2H-Benzo[b][1,4,5]Oxathiazepin-8-yl)-5-Isopropylthiazole-4-Carboxamide]	30 to 100 µM	150 to 200%
O=C(Nc1ccc2c(c1)S(=O)(=O)N(c1ccc(C(F)(F)F)cc1)CCO2)c1c(F)cncc1F [Compound 2198]	20 to 30 µM	150 to 200%
O=C(Nc1ccc2c(c1)S(=O)(=O)N(c1ccc(C(F)(F)F)cc1)CCO2)c1csc(CO)n1 [Compound 2305]	20 to 30 µM	129 to 149%
Cc1ocnc1C(=O)Nc1ccc2c(c1)S(=O)(=O)N(c1ccc(C#N)cc1)CCO2 [Compound 2377, N-(2-(4-cyanophenyl)-1,1-dioxido-3,4-dihydro-2H-benzo[b][1,4,5]oxathiazepin-8-yl)-5-methyloxazole-4-carboxamide]	30 to 100 µM	150 to 200%
Cc1nccnc1C(=O)Nc1ccc2c(c1)S(=O)(=O)N(c1ccc(C(F)(F)F)cc1)CCO2 [Compound 2215]	30 to 100 µM	129 to 149%
CN1CCCC1C(=O)Nc1ccc2c(c1)S(=O)(=O)N(c1ccc(C(F)(F)F)cc1)CCO2 (stereo not drawn) [Compound 2417]	30 to 100 µM	150 to 200%
Cn1cccc(C(=O)Nc2ccc3c(c2)S(=O)(=O)N(c2ccc(C(F)(F)F)cc2)CCO3)c1=O [Compound 2268]	< 20 µM	150 to 200%
O=C(Nc1ccc2c(c1)S(=O)(=O)N(c1ccc(C(F)(F)F)cc1)CCO2)c1ccnc(CO)c1 [Compound 2290]	30 to 100 µM	> 200%

Source: US20230218632A1, “CYCLIC SULFONAMIDE DERIVATIVES AS TRAP1 MODULATORS AND USES THEREOF” (Amathus Therapeutics, Inc., priority 2020, published 2023)
